Experimental data as given in US11613531B2, “Inhibitors of RHO associated coiled-coil containing protein kinase” (Kadmon Corporation, LLC, priority 2017, dated 2023).
Read-outs that look alike come from different tables or passages of the source.

How the values were obtained:
[1] = molecular target: Recombinant ROCK2 (amino acids 1-552) (Homo sapiens (Human), UniProt O75116); assay: Z′-Lyte kinase assay, ROCK2; type: biochemical; conditions: for inhibition at 0.5 µM: 0.5 μM compound; for inhibition at 0.5 µM / inhibition at 1 µM / inhibition at 3 µM: read-out: ROCK2 % inh. @ [conc]; for inhibition at 1 µM: 1 μM compound; for inhibition at 3 µM: 3 μM compound
Chain of Recombinant ROCK2 (amino acids 1-552) (O75116 1-552): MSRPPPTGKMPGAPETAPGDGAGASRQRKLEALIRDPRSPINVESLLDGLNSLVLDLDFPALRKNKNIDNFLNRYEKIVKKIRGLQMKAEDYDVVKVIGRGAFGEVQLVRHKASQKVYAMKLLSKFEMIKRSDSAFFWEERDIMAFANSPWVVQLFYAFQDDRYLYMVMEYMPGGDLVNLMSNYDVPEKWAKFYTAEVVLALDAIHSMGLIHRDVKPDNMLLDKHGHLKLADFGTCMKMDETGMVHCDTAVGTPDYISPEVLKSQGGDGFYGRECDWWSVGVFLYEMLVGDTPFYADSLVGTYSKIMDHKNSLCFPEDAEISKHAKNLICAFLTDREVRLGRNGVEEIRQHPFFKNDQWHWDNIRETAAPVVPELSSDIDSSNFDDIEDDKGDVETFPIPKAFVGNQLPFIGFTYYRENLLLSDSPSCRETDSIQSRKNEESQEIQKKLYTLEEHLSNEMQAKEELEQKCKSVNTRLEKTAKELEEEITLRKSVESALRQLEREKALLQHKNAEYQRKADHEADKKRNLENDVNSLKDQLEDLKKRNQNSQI
Procedure, shortened: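 Recombinant human ROCK1 (aa 1-535) or ROCK2 (aa 1-552) activity read by Z′-Lyte kinase assay. Percent inhibition at 1 μM compound was normalized to DMSO control; IC50 from 9-point 2-fold serial dilutions by nonlinear regression.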

[2] = system: ppMlc (T18/S19) levels in A7R5 cells; assay: A7R5 in-cell ELISA (pMLC); type: cell-based, Rat; conditions: Rattus norvegicus, A7R5, A7R5 cells; for inhibition at 1 µM: 1 μM compound; for inhibition at 1 µM / inhibition at 10 µM: read-out: pMLC % inh A7R5 @ [conc]; for inhibition at 10 µM: 10 μM compound
Procedure, shortened: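 A7R5 rat aortic smooth muscle cells seeded 24 h, then treated 90 min with a 9-point 2-fold compound dilution series. Fixed cells probed for ppMlc (T18/S19) by colorimetric in-cell ELISA; cellular IC50 from nonlinear regression curve fit.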

[3] = system: human ACTA2 gene promoter luciferase reporter in NIH3T3 cells; assay: NIH3T3 Acta2-promoter driven-luciferase assay; type: cell-based; conditions: NIH3T3, 24 h, read-out: NIH3T3 Acta2-luc, IC50
Procedure: NIH3T3 Cells Acta2-Promoter Driven-Luciferase Assay.
A NIH3T3 cell line stably expressing a luciferase reporter driven by the human ACTA2 gene promoter (−1000-1 bp) was established (NIH3T3-Acta2-luciferase). The cells were plated to confluence and treated with the test compounds plus TGFβ1 for 24 hr. Cells were then lysed and luciferase activity was measured using the LightSwitch luciferase kit from Active Motif.
(§1) In vitro activities for the compounds were measured with Z′-lyte kinase kit (ThermoFisher Scientific). The percent inhibition rate was calculated by normalizing the kinase activity value obtained with 1 μM compound treatment against DMSO control value and then applied to the formula, [1-(compound/DMSO)]×100%. IC50s were calculated using the nonlinear regression curve fit function of the GraphPad Prism software with kinase activities data measured with 9 points 2-fold serial dilution of compounds treatment. In cell pMLC IC50s were calculated with data obtained from A7R5 cell experiments. A7R5 cells were treated with 9 points 2-fold serial dilution of compounds and ppMlc (T18/S19) levels were determined to calculate cellular IC50 values of the compounds using the nonlinear regression curve fit function of the GraphPad Prism software. NIH3T3 cells stably expressing ACTA2-promoter-driven-luciferase were applied to measure ROCK compounds functional IC50s in cells. Cells were plated in 96 well plates to confluence and treated with 9 points serial dilution of compounds in combination with TGFβ1 for 24 hr. Luciferase activities were measured and compound's IC50s were calculated using the nonlinear regression curve fit function of the GraphPad Prism software.
ROCK inhibitors can be effectively rank ordered by ACTA2-promoter-driven-luciferase reporter cell assay. NIH3T3 cells stably expressing ACTA2-promoter-driven-luciferase were plated in 96 well plates to confluence and treated with 9 points serial dilution of compounds in combination with TGFβ1 for 24 hr. Luciferase activities were measured and compound's IC50s were calculated. By this assay multiple compounds of the invention gave IC50s under 200 nM.

[4] = molecular target: Recombinant ROCK1 (amino acids 1-535) (Homo sapiens (Human), UniProt Q13464); assay: Z′-Lyte kinase assay, ROCK1; type: biochemical; conditions: for inhibition at 3 µM: 3 μM compound; for inhibition at 3 µM / inhibition at 0.5 µM: read-out: ROCK1 % inh. @ [conc]; for inhibition at 0.5 µM: 0.5 μM compound
Chain of Recombinant ROCK1 (amino acids 1-535) (Q13464 1-535): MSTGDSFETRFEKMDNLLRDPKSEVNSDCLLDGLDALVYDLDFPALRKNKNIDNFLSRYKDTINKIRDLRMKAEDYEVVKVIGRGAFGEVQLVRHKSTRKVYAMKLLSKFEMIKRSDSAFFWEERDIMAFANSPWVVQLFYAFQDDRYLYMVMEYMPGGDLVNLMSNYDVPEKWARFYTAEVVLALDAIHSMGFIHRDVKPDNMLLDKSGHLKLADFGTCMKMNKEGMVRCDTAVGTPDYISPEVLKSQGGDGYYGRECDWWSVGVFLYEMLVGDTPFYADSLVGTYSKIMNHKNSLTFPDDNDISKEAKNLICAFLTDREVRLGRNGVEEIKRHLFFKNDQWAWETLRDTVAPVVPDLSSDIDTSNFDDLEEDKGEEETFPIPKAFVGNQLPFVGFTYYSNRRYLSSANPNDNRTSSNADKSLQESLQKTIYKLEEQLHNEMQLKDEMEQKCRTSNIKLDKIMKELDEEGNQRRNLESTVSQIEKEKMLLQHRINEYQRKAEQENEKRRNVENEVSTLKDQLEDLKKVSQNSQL
Procedure: Determination of Compound's ROCK Inhibitory Activity In Vitro (Z'Lyte Assay).
Recombinant ROCK1 (amino acids 1-535) and ROCK2 (amino acids 1-552) proteins were purchased from ThermoFisher Scientific. Compound's activities were measured by Z′-lyte kinase kit (ThermoFisher Scientific) and IC50 was calculated
as §1

[5] = NIH3T3 cells, plus TGFβ1 for 24 hr
[6] = 9 points 2-fold serial dilution

Row | Compound | IC50 [1] [nM] | IC50 [2] [nM] | IC50 ([3]; with TGFβ1, 24 hr) [nM] | inhibition at 1 µM [2] [%] | inhibition at 10 µM [2] [%] | IC50 [1, 6] [nM] | further results
1 | CCOC(=O)[C@H]1N[C@@H]2C[C@@H]1CN(c1ncc(Cl)c(Nc3ccc4[nH]ncc4c3)n1)C2 (stereo in doubt) [Example 326, Ethyl 3-(4-((1H-indazol-5-yl)amino)-5-chloropyrimidin-2-yl)-3,6-diazabicyclo[3.2.1]octane-7-carboxylate] | 305 | 6290 | > 10000 | – | – | – | inhibition at 0.5 µM [1]: 64%
2 | c1cc(-c2ccc(Nc3nc(N4C5CCC4CNC5)nc4c3COCC4)cc2)ccn1 [Example 37, 2-(3,8-diazabicyclo[3.2.1]octan-8-yl)-N-(4-(pyridin-4-yl)phenyl)-7,8-dihydro-5H-pyrano[4,3-d]pyrimidin-4-amine] | – | 7060 | > 10000 | – | – | – | –
3 | c1cc(Nc2ccc3[nH]ncc3c2)nc(N2CC[C@@H]3NC[C@@H]3C2)n1 [Example 82, N-(2-((1R,6S)-3,7-diazabicyclo[4.2.0]octan-3-yl)pyrimidin-4-yl)-1H-indazol-5-amine] | 12 | 572 | 3420 | 42.5 | – | – | –
4 | Cc1cnc(N2CCNC(C(C)C)C2)nc1Nc1ccc2[nH]ncc2c1 (stereo not shown) [Example 101, N-(2-(3-isopropylpiperazin-1-yl)-5-methylpyrimidin-4-yl)-1H-indazol-5-amine] | – | – | – | – | 19.2 | – | IC50 [3, 5]: 7530 nM
5 | Cc1cc(Nc2ccc3[nH]ncc3c2)nc(N2CCNCC(C)C2)n1 (stereo not shown) [Example 118, N-(6-methyl-2-(6-methyl-1,4-diazepan-1-yl)pyrimidin-4-yl)-1H-indazol-5-amine] | – | – | – | 32.9 | – | 90 | inhibition at 1 µM [1]: 95.6%; IC50 ([2]; ppMlc (T18/S19)): 382 nM; IC50 [3, 5]: 3730 nM
6 | Cc1cc(Nc2ccc3[nH]ncc3c2)nc(N2CC3CNC(C3)C2)n1 (stereo not shown) [Example 129, N-(2-(3,6-diazabicyclo[3.2.1]octan-3-yl)-6-methylpyrimidin-4-yl)-1H-indazol-5-amine] | 18 | 377 | 2920 | 50.6 | – | – | inhibition at 1 µM [1]: 101%
7 | Cc1cc(Nc2ccc3[nH]ncc3c2)nc(N2CCC3NCC3C2)n1 (stereo not shown) [Example 135, N-(2-(3,7-diazabicyclo[4.2.0]octan-3-yl)-6-methylpyrimidin-4-yl)-1H-indazol-5-amine] | 9.7 | 400 | 2070 | 48.4 | – | – | –
8 | Fc1cnc(N2CC3CCC2CN3)nc1Nc1ccc2[nH]ncc2c1 (stereo not shown) [Example 154, N-(2-(2,5-diazabicyclo[2.2.2]octan-2-yl)-5-fluoropyrimidin-4-yl)-1H-indazol-5-amine] | – | – | – | 36.2 | – | 245 | inhibition at 1 µM [1]: 98.5%; IC50 ([2]; ppMlc (T18/S19)): 433 nM; IC50 [3, 5]: 2910 nM
9 | Fc1cnc(N2CC3CNC(C3)C2)nc1Nc1ccc2[nH]ncc2c1 (stereo not shown) [Example 166, N-(2-(3,6-diazabicyclo[3.2.1]octan-3-yl)-5-fluoropyrimidin-4-yl)-1H-indazol-5-amine] | – | 259 | 2040 | 34.3 | – | – | inhibition at 1 µM [1]: 100%
10 | CCC1CN(c2nccc(Nc3ccc(-c4ccncc4)cc3)n2)CCCN1 (stereo not shown) [Example 248, 2-(3-ethyl-1,4-diazepan-1-yl)-N-(4-(pyridin-4-yl)phenyl)pyrimidin-4-amine] | – | – | – | – | – | 43.9 | inhibition at 3 µM [4]: 100%; IC50 [4, 6]: 36 nM; inhibition at 3 µM [1]: 100%; IC50 ([2]; ppMlc (T18/S19)): 968 nM
11 | CCC1CCN(c2nccc(Nc3ccc(-c4ccncc4)cc3)n2)CCN1 (stereo not shown) [Example 249, 2-(5-ethyl-1,4-diazepan-1-yl)-N-(4-(pyridin-4-yl)phenyl)pyrimidin-4-amine] | – | – | – | – | 33.6 | > 1000 | IC50 [4, 6]: > 1000 nM
12 | CC(C)C1CCN(c2nccc(Nc3ccc(-c4ccncc4)cc3)n2)CCN1 (stereo not shown) [Example 250, 2-(5-isopropyl-1,4-diazepan-1-yl)-N-(4-(pyridin-4-yl)phenyl)pyrimidin-4-amine] | – | – | – | – | 50.4 | > 1000 | IC50 [4, 6]: > 1000 nM; IC50 ([2]; ppMlc (T18/S19)): 5440 nM
13 | CC(C)C1CN(c2nccc(Nc3ccc(-c4ccncc4)cc3)n2)CCCN1 (stereo not shown) [Example 251, 2-(3-isopropyl-1,4-diazepan-1-yl)-N-(4-(pyridin-4-yl)phenyl)pyrimidin-4-amine] | – | – | – | – | 66.9 | 160 | IC50 [4, 6]: 57 nM; IC50 ([2]; ppMlc (T18/S19)): 614 nM
14 | c1ccc(C2CCN(c3nccc(Nc4ccc(-c5ccncc5)cc4)n3)CCN2)cc1 (stereo not shown) [Example 271, 2-(5-phenyl-1,4-diazepan-1-yl)-N-(4-(pyridin-4-yl)phenyl)pyrimidin-4-amine] | – | – | – | – | 28.3 | > 1000 | IC50 [4, 6]: > 1000 nM
15 | c1ccc2c(Nc3ccc(-c4ccncc4)cc3)nc(N3CCCNCC3)nc2c1 [Example 272, 2-(1,4-diazepan-1-yl)-N-(4-(pyridin-4-yl)phenyl)quinazolin-4-amine] | – | – | – | – | 53.3 | – | inhibition at 3 µM [4]: 88.5%; inhibition at 3 µM [1]: 85.8%
16 | c1cc(-c2ccc(Nc3ccnc(N4CCCNCC4)n3)cc2)ccn1 [Example 273, 2-(1,4-diazepan-1-yl)-N-(4-(pyridin-4-yl)phenyl)pyrimidin-4-amine] | – | – | – | – | 44.1 | – | inhibition at 3 µM [4]: 89.1%; inhibition at 3 µM [1]: 85.6%
17 | c1cc(-c2ccc(Nc3nc(N4C5CCC4CNC5)nc4c3COC4)cc2)ccn1 [Example 281, 2-(3,8-diazabicyclo[3.2.1]octan-8-yl)-N-(4-(pyridin-4-yl)phenyl)-5,7-dihydrofuro[3,4-d]pyrimidin-4-amine] | 2570 | – | – | 10.4 | – | – | inhibition at 0.5 µM [4]: 14%; inhibition at 0.5 µM [1]: 10%
18 | c1cc2[nH]ncc2cc1Nc1nc(N2C3CNCC2C3)nc2c1COC2 [Example 283, 2-(3,6-diazabicyclo[3.1.1]heptan-6-yl)-N-(1H-indazol-5-yl)-5,7-dihydrofuro[3,4-d]pyrimidin-4-amine] | < 0.1 | – | – | 25.8 | – | – | inhibition at 0.5 µM [4]: 101%; inhibition at 0.5 µM [1]: 101%
19 | c1cc2[nH]ncc2cc1Nc1nc(N2CC3CC2CN3)nc2c1COC2 (stereo not shown) [Example 284, 2-(2,5-diazabicyclo[2.2.1]heptan-2-yl)-N-(1H-indazol-5-yl)-5,7-dihydrofuro[3,4-d]pyrimidin-4-amine] | – | – | – | 24.1 | – | – | inhibition at 0.5 µM [4]: 25%; inhibition at 0.5 µM [1]: 30%
20 | CN1CCc2c(nc(N3C4CNCC3C4)nc2Nc2ccc3[nH]ncc3c2)C1 [Example 313, 2-(3,6-diazabicyclo[3.1.1]heptan-6-yl)-N-(1H-indazol-5-yl)-7-methyl-5,6,7,8-tetrahydropyrido[3,4-d]pyrimidin-4-amine] | 14 | 3030 | – | – | – | – | inhibition at 0.5 µM [4]: 94%; inhibition at 0.5 µM [1]: 99%
21 | CNc1cc(Nc2ccc3[nH]ncc3c2)nc(N2C3CCC2CNC3)n1 [Example 329, 2-(3,8-diazabicyclo[3.2.1]octan-8-yl)-N4-(1H-indazol-5-yl)-N6-methylpyrimidine-4,6-diamine] | 1.8 | – | 90 | – | – | – | –
22 | CN(C)c1cc(Nc2cc3cn[nH]c3cc2F)nc(N2C3CCC2CNC3)n1 [Example 331, 2-(3,8-diazabicyclo[3.2.1]octan-8-yl)-N4-(6-fluoro-1H-indazol-5-yl)-N6,N6-dimethylpyrimidine-4,6-diamine] | 5.9 | – | 318 | – | – | – | –
23 | c1cncc(-c2cccc(Nc3ccnc(N4CCNCC4)n3)c2)c1 [Example 346, 2-(piperazin-1-yl)-N-(3-(pyridin-3-yl)phenyl)pyrimidin-4-amine] | > 10000 | – | – | – | 12.3 | – | IC50 [4]: > 10000 nM
